IC50 data for eight compounds are collected here from patent US11542259B2, “Compounds for the treatment of kinase-dependent disorders” (Exelixis, Inc., priority 2018, dated 2023).

The target of assay [1] is KDR (Homo sapiens (Human), UniProt P35968). Nature of the assay: KDR autophosphorylation ELISA in HUVEC cells. The assay is classed as cell-based. The note with it: cellular, VEGF165 stimulated. In short, it runs like this:
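Inhibition of VEGF165-induced KDR phosphorylation was determined in serum-starved HUVEC after 1 h compound pretreatment and 5 min stimulation with 100 ng/mL VEGF165. Lysate phospho-KDR was measured by ELISA; IC50 values came from a 4-parameter logistic fit of 8-point curves.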
On the technique in general: ELISA stands for enzyme-linked immunosorbent assay.

For assay [2], the target named is Human Met (residues R974-S1390 with A1209G and V1290L) (Homo sapiens, UniProt P08581). Nature of the assay: Human Met kinase assay (33P radiometric, KinaseProfiler). The assay is classed as biochemical. Conditions: 10 μM ATP, read-out: c-Met IC50.
For assay [3], the target named is Mer (Homo sapiens (Human), UniProt Q12866). In words: Mer autophosphorylation ELISA in transient transfected 293A cells. The assay is classed as cell-based. Conditions: cellular, MERTK transfected 293A cells. In a few lines:
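293A cells transiently transfected with human MERTK DNA, then treated 1 h with 8-point compound dilutions in serum-free medium (0.3% DMSO). Phospho-Mer in lysates quantified by sandwich ELISA against phospho-Mer standard; normalised to DMSO (100%) and reference inhibitor (0%), IC50 from 4-parameter logistic fit.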

KDR, sequence (P35968 20-1356): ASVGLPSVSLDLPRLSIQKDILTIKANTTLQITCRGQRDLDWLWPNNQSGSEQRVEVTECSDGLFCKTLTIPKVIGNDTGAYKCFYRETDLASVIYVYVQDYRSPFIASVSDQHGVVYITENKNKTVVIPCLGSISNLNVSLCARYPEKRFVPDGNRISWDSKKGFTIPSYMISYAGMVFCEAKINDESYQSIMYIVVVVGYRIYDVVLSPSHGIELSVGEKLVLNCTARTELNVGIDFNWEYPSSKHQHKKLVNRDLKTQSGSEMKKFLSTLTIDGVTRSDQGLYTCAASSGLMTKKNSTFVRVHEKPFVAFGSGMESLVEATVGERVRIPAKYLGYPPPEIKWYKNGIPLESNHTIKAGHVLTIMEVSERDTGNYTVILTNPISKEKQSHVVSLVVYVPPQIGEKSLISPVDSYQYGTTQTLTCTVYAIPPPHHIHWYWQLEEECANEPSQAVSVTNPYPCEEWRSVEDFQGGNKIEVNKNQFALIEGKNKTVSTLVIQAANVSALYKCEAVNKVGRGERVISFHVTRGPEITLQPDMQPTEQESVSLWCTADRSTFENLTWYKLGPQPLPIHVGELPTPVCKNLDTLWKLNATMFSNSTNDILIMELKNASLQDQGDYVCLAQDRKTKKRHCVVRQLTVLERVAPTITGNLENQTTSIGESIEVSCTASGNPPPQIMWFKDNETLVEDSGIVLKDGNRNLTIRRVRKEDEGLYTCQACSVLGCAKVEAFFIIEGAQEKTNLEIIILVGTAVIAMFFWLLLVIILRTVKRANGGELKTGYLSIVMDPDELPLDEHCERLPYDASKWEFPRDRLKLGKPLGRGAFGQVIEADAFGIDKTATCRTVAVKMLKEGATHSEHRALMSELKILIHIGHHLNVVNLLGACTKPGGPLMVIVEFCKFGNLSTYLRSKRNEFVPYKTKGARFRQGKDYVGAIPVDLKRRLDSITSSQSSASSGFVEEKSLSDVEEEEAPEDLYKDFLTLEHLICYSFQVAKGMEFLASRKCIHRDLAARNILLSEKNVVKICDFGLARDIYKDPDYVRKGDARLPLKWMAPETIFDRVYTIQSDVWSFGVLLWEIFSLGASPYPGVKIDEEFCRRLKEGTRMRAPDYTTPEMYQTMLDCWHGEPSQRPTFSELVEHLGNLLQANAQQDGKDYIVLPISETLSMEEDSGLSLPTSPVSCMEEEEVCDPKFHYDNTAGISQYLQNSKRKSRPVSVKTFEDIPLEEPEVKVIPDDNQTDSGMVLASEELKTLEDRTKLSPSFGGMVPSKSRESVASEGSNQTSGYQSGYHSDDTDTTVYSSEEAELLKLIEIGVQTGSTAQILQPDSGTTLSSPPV
Mer, sequence (Q12866 21-999): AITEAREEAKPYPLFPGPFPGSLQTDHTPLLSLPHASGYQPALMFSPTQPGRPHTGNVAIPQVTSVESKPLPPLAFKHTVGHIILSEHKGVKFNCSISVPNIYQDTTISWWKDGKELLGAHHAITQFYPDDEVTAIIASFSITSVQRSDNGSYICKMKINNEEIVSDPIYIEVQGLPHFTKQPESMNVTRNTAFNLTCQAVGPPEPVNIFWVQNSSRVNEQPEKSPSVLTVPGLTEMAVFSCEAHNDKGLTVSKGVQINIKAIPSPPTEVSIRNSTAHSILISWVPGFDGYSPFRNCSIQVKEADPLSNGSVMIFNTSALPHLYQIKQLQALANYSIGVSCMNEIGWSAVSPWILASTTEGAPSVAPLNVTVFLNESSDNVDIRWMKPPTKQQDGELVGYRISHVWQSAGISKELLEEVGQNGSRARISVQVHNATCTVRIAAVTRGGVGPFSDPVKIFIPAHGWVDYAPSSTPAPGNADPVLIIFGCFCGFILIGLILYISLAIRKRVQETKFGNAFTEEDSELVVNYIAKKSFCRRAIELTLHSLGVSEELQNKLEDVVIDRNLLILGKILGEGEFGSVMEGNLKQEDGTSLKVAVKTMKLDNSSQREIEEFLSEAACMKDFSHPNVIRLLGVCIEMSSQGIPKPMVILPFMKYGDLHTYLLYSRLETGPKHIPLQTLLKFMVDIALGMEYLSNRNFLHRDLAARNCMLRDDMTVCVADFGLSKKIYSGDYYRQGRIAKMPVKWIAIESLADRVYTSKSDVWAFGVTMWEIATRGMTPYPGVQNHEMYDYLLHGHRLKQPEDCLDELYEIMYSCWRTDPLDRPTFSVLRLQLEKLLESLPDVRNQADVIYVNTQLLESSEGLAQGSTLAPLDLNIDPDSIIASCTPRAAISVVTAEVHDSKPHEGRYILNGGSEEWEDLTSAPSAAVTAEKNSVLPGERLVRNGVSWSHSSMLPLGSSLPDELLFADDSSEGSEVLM

As for `CNC(=O)c1cc2c(Oc3ccc(NC(=O)C4(C(=O)Nc5ccc(F)cc5)CC4)cc3F)ccnc2cc1OC` [Compound 135, 1-N′-[3-fluoro-4-[7-methoxy-6-(methylcarbamoyl)quinolin-4-yl]oxyphenyl]-1-N-(4-fluorophenyl)cyclopropane-1,1-dicarboxamide], the IC50 in assay [1], in assay [2] and in assay [3] was not above 10 nM throughout.

Regarding `Cc1cc2c(Oc3ccc(NC(=O)C4(C(=O)Nc5ccc(F)cc5)CC4)cc3)ccnc2cc1C(N)=O` [Compound 142, 1-N-[4-(7-carbamoyl-6-methylquinolin-4-yl)oxyphenyl]-1-N′-(4-fluorophenyl)cyclopropane-1,1-dicarboxamide], the IC50 (as a rule, the concentration needed to halve the response being measured) in assay [1] is 10 to 100 nM; in assay [2], not above 10 nM; in assay [3], 10 to 100 nM.

Consider `NC(=O)c1ccc2c(Oc3ccc(NC(=O)C4(C(=O)Nc5ccc(F)cc5)CC4)cc3)ccnc2c1` [Compound 164, 1-N-[4-(7-carbamoylquinolin-4-yl)oxyphenyl]-1-N′-(4-fluorophenyl)cyclopropane-1,1-dicarboxamide], for which the IC50 in assay [1] is 10 to 100 nM; in assay [2] it was not above 10 nM; in assay [3] it was 10 to 100 nM.

For the compound `CNC(=O)c1ccc2c(Oc3ccc(NC(=O)C4(C(=O)Nc5ccc(F)cc5)CC4)cc3)ccnc2c1` [Compound 165, 1-N′-(4-fluorophenyl)-1-N-[4-[7-(methylcarbamoyl)quinolin-4-yl]oxyphenyl]cyclopropane-1,1-dicarboxamide], the values for the IC50 in assay [1], in assay [2] and in assay [3] were not above 10 nM, not above 10 nM and 10 to 100 nM, respectively.

In the case of `COc1cc2nccc(Oc3ccc(NC(=O)C4(C(=O)Nc5ccc(F)cc5)CC4)cc3)c2cc1-c1cnn(C)c1` [Compound 182, 1-N′-(4-fluorophenyl)-1-N-[4-[7-methoxy-6-(1-methylpyrazol-4-yl)quinolin-4-yl]oxyphenyl]cyclopropane-1,1-dicarboxamide], the concentration for half-maximal inhibition (IC50) in assay [1], in assay [2] and in assay [3] was not above 10 nM each time.

With `COc1cc2nccc(Oc3ccc(NC(=O)C4(C(=O)Nc5ccc(F)cc5)CC4)cc3)c2cc1-c1ccn[nH]1` [Compound 185, 1-N′-(4-fluorophenyl)-1-N-[4-[7-methoxy-6-(1H-pyrazol-5-yl)quinolin-4-yl]oxyphenyl]cyclopropane-1,1-dicarboxamide], the 50% inhibitory concentration (IC50) in assay [1], in assay [2] and in assay [3] was not above 10 nM each time.

On to `COc1cc2nccc(Oc3ccc(NC(=O)C4(C(=O)Nc5ccc(F)cc5)CC4)cc3)c2cc1S(N)(=O)=O` [Compound 206, 1-N′-(4-Fluorophenyl)-1-N-[4-(7-methoxy-6-sulfamoylquinolin-4-yl)oxyphenyl]cyclopropane-1,1-dicarboxamide], for which the results for the IC50 in assay [1], in assay [2] and in assay [3] were not above 10 nM, not above 10 nM and 10 to 100 nM, respectively.

For the compound `COc1cc2nccc(Oc3ccc(NC(=O)C4(C(=O)Nc5ccc(F)cc5)CC4)cc3)c2cc1-c1nnco1` [Compound 220, 1-N′-(4-Fluorophenyl)-1-N-[4-[7-methoxy-6-(1,3,4-oxadiazol-2-yl)quinolin-4-yl]oxyphenyl]cyclopropane-1,1-dicarboxamide], the half-inhibitory concentration (IC50) in assay [1], in assay [2] and in assay [3] was not above 10 nM each time.
